Results from patent US20070191461A1, “USE OF BENZO-HETEROARYL SULFAMIDE DERIVATIVES FOR THE TREATMENT OF MIGRAINE” (priority 2006, published 2007).
Where “and” joins values, the source holds several entries; their conditions need not be identical. Equal entries are not always repeated.

Assays:
[1] = Body weight and systemic physiology monitoring during CSD testing; assay type: in vivo, Sprague-Dawley rats; settings: rats, 100 mg/kg/day p.o. for 35 days
Description: (§1) Adult male Sprague-Dawley rats (250-600 g) were divided into two treatment groups: vehicle (0.5% methylcellulose; n=13) and Compound #1 (100 mg/kg/day, p.o.; n=7). Results were compared to historical positive controls with valproic acid at 200 mg/kg/day, i.p.
Vehicle or Compound #1 was administered orally once a day for 35 days. On the last day of treatment, rats continued to receive food and water ad libitum, and were given their daily oral dose of vehicle or Compound #1 approximately 1.5 h prior to CSD testing. Rats were anesthetized using isoflurane and intubated via a tracheotomy for mechanical ventilation. Body temperature, blood pressure and heart rate were monitored throughout the procedure to ensure homeostasis. Rats were placed in a stereotaxic frame and three burr holes were drilled under saline cooling over the right hemisphere at the following coordinates (mm from bregma): (1) posterior 4.5, lateral 2.0 (occipital cortex): KCL application; (2) posterior 0.5, lateral 2.0 (parietal cortex): recording site 1; (3) anterior 2, lateral 2 (frontal cortex): recording site 2. Dura overlying the occipital cortex was gently removed. The steady (DC) potential and electrocorticogram (EcoG) were recorded with glass micropipettes filled with 200 mM NaCl, […] below the dural surface. An Ag/AgCl reference electrode was placed subcutaneously in the neck. Following surgical preparation, the cortex was allowed to recover for 30 minutes under saline irrigation. Cortical spreading depressions were initiated by placing a cotton ball soaked with 1 M KCl on the pial surface. The number of KCL-induced CSDs was counted for 2 hours. Propagation speed was calculated from the distance (mm) between the recording electrodes 1 and 2, divided by the latency (min) between the CSDs recorded at these sites.

[2] = test system: KCl-induced cortical spreading depression; assay: Cortical spreading depression (CSD) assay as model of migraine; assay type: in vivo, Sprague-Dawley rats; settings: rats, 100 mg/kg/day p.o. for 35 days
Description: Cortical spreading depression (CSD) has been implicated in migraine and as a headache trigger, and can be evoked in experimental animals by electrical or chemical stimulation (Kunkler & Kraig, 2003; Lauritzen et al., 1982; Moskowitz, 1984).
as §1
Vehicle or Compound #1 was administered orally once a day for 35 days. On the last day of treatment, rats continued to receive food and water ad libitum, and were given their daily oral dose of vehicle or Compound #1 approximately 1.5 h prior to CSD testing. Rats were anesthetized using isoflurane and intubated via a tracheotomy for mechanical ventilation. Body temperature, blood pressure and heart rate were monitored throughout the procedure to ensure homeostasis. […] The steady (DC) potential and electrocorticogram (EcoG) were recorded with glass micropipettes filled with 200 mM NaCl, […] below the dural surface. […] The number of KCL-induced CSDs was counted for 2 hours. Propagation speed was calculated from the distance (mm) between the recording electrodes 1 and 2, divided by the latency (min) between the CSDs recorded at these sites. […]

[3] = test system: KCl-induced cortical spreading depression; settings: historical positive control, 200 mg/kg/day i.p. for 4 weeks; saline vehicle 18; p<0.05; cited from earlier work

Row | SMILES | Physiological monitoring, including arterial pH, pCO2, pO2 and blood pressure, versus vehicle [1] | Systemic Physiology: BP (blood pressure) ([1]; during CSD testing) | Systemic Physiology: pCO2 ([1]; during CSD testing) | Systemic Physiology: pH (arterial) ([1]; during CSD testing) | Systemic Physiology: pO2 ([1]; during CSD testing) | Propagation Speed ([2]; KCl-induced CSD, vehicle 3.2 ± 1, p=0.06) | CSDs (2 h) ≧5 mV (number of KCl-induced cortical spreading depressions) ([2]; last dose approx. 1.5 h before testing, topical 1 M KCl, counted for 2 hours, vehicle 16 ± 3, p=0.12) | Number of cortical spreading depressions [3]
1 | NS(=O)(=O)NCc1csc2ccccc12 [Compound #1, N-(benzo[b]thien-3-ylmethyl)-sulfamide] | did not differ between the groups | 102 ± 6 | 42 ± 6 | 7.4 ± 0.05 | 154 ± 23 | 2.8 ± 0.3 mm/min | 12 and 12 ± 5 | 
2 | CCCC(CCC)C(=O)O [valproate, valproic acid] |  |  |  |  |  |  |  | 12
